Counter-ions that a name gives are not always drawn.
What was measured:
Malate dehydrogenase [1] = target: T1, Malate dehydrogenase (Sus scrofa, UniProt P00346); assay: Formation of formazan dyes: Malate dehydrogenase and 1-Methoxy PMS, absence of malate (TABLE 17); format: biochemical, pig heart; parameters: L-malate dehydrogenase (pig heart); purchased Sigma-Aldrich 10127248001 / 10127914001; details: Malate dehydrogenase and 1-Methoxy PMS, absence of malate, mean of three experiments
T1 sequence (P00346 25-338): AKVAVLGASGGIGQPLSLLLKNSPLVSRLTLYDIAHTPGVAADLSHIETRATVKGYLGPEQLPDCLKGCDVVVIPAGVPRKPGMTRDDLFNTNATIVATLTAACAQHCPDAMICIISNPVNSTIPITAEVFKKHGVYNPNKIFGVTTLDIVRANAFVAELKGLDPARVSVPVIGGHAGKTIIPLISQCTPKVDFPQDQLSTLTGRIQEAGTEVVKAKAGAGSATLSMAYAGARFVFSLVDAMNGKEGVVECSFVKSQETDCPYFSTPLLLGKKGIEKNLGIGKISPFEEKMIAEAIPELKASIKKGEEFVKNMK

[2] = Formation of formazan dyes: NADH, malate and 1-methoxy PMS (TABLE 16); format: biochemical; details: NADH, malate and 1-methoxy PMS, mean of three experiments
[3] = Formation of formazan dyes: control buffer and 1-Methoxy PMS, absence of malate (TABLE 21); format: biochemical; details: for Absorbance, formation of formazan dyes (Means): control buffer and 1-Methoxy PMS, absence of malate, mean of three experiments
oral lavage [4] = assay: Formation of formazan dyes: oral lavage, malate and 1-Methoxy PMS (TABLE 20); format: biochemical, human; details: oral lavage, malate and 1-Methoxy PMS, mean of three experiments
oral lavage [5] = assay: Formation of formazan dyes: oral lavage and diaphorase, not malate (TABLE 11); format: biochemical, human
diaphorase [6] = assay: Formation of formazan dyes: NADH and diaphorase, absence of malate (TABLE 7); format: biochemical, Clostridium kluyveri; details: NADH and diaphorase, absence of malate
diaphorase [7] = assay: Effect of concentrations of tetrazolium salts on formation of formazan dyes (FIGS. 4A-4G); format: biochemical; details: 15 mM NADH+H, 20 μg diaphorase, pH 7.5; FIGS. 4A to 4G
Procedure: On the idea that higher concentrations of tetrazolium salts in the assay buffer would likely result in more formazan dyes in the reaction, various concentrations of tetrazolium salts were added to a reaction buffer and the formation of formazan dyes were measured at 0, 30 and 60 minutes. […] The reactions were performed at room temperature. Absorbance was taken at 0, 30 and 60 minutes.

diaphorase [8] = assay: Formation of formazan dyes: only diaphorase, not malate (TABLE 13); format: biochemical, Clostridium kluyveri; details: mean of three experiments
Malate dehydrogenase [9] = target: T1, Malate dehydrogenase; assay: Formation of formazan dyes: Malate dehydrogenase, malate and 1-Methoxy PMS (TABLE 18); format: biochemical, pig heart; parameters: L-malate dehydrogenase (pig heart); purchased Sigma-Aldrich 10127248001 / 10127914001; details: Malate dehydrogenase, malate and 1-Methoxy PMS, mean of three experiments
[10] = Formation of formazan dyes: NADH and 1-methoxy PMS, absence of malate (TABLE 15); format: biochemical; details: NADH and 1-methoxy PMS, absence of malate, mean of three experiments
[11] = Formation of formazan dyes: control buffer, malate and 1-Methoxy PMS (TABLE 22); format: biochemical; details: control buffer, malate and 1-Methoxy PMS, mean of three experiments
[12] = test system: Malate dehydrogenase and diaphorase; assay: Formation of formazan dyes: Malate dehydrogenase and diaphorase, absence of malate (TABLE 9); format: biochemical, pig heart

- Absorbance, formation of formazan dyes (Means) (Malate dehydrogenase [1]; 0 h): 0.34
- Absorbance, formation of formazan dyes (Means) (Malate dehydrogenase [1]; 1 h): 0.36
- Absorbance, formation of formazan dyes (Means) (Malate dehydrogenase [1]; 2 h): 0.33
- Absorbance, formation of formazan dyes (Means) (Malate dehydrogenase [1]; 3 h): 0.33
- Absorbance, formation of formazan dyes (Means) (Malate dehydrogenase [1]; 4 h): 0.41
- Absorbance, formation of formazan dyes (Means) (Malate dehydrogenase [1]; 6 h): 0.48
- Absorbance, formation of formazan dyes (Means) (Malate dehydrogenase [1]; 8 h): 0.48
- Absorbance, formation of formazan dyes (Means) (Malate dehydrogenase [1]; 10 h): 0.52
- Absorbance, formation of formazan dyes (Means) (Malate dehydrogenase [1]; 12 h): 0.51
- Formation of formazan dyes, absorbance, Means 0 h (oral lavage [5]; oral lavage and diaphorase, not malate, 0 h): 0.70
- Formation of formazan dyes, absorbance, Means 1 h (oral lavage [5]; oral lavage and diaphorase, not malate, 1 h): 0.86
- Formation of formazan dyes, absorbance, Means 2 h (oral lavage [5]; oral lavage and diaphorase, not malate, 2 h): 0.91
- Formation of formazan dyes, absorbance, Means 3 h (oral lavage [5]; oral lavage and diaphorase, not malate, 3 h): 1.00
- Formation of formazan dyes, absorbance, Means 4 h (oral lavage [5]; oral lavage and diaphorase, not malate, 4 h): 1.13
- Formation of formazan dyes, absorbance, Means 6 h (oral lavage [5]; oral lavage and diaphorase, not malate, 6 h): 1.18
- Formation of formazan dyes, absorbance, Means 8 h (oral lavage [5]; oral lavage and diaphorase, not malate, 8 h): 1.21
- Formation of formazan dyes, absorbance, Means 10 h (oral lavage [5]; oral lavage and diaphorase, not malate, 10 h): 1.25
- Formation of formazan dyes, absorbance, Means 12 h (oral lavage [5]; oral lavage and diaphorase, not malate, 12 h): 1.27
- Formation of formazan dyes, absorbance, Means 0 h (diaphorase [6]; 0 h): 3.21
- Formation of formazan dyes, absorbance, Means 1 h (diaphorase [6]; 1 h): 3.24
- Formation of formazan dyes, absorbance, Means 2 h (diaphorase [6]; 2 h): 3.22
- Formation of formazan dyes, absorbance, Means 3 h (diaphorase [6]; 3 h): 3.20
- Formation of formazan dyes, absorbance, Means 4 h (diaphorase [6]; 4 h): 3.27
- Formation of formazan dyes, absorbance, Means 6 h (diaphorase [6]; 6 h): 3.29
- Formation of formazan dyes, absorbance, Means 8 h (diaphorase [6]; 8 h): 3.28
- Formation of formazan dyes, absorbance, Means 10 h (diaphorase [6]; 10 h): 3.28
- Formation of formazan dyes, absorbance, Means 12 h (diaphorase [6]; 12 h): 3.28
- concentration of tetrazolium salt at which absorbance reached peaks (diaphorase [7]): around 1.5 mM
- Absorbance, formation of formazan dyes (Means) (diaphorase [8]; 0 h): 0.16
- Absorbance, formation of formazan dyes (Means) (diaphorase [8]; 1 h): 0.25
- Absorbance, formation of formazan dyes (Means) (diaphorase [8]; 2 h): 0.26
- Absorbance, formation of formazan dyes (Means) (diaphorase [8]; 3 h): 0.22
- Absorbance, formation of formazan dyes (Means) (diaphorase [8]; 4 h): 0.17
- Absorbance, formation of formazan dyes (Means) (diaphorase [8]; 6 h): 0.20
- Absorbance, formation of formazan dyes (Means) (diaphorase [8]; 8 h): 0.16
- Absorbance, formation of formazan dyes (Means) (diaphorase [8]; 10 h): 0.13
- Absorbance, formation of formazan dyes (Means) (diaphorase [8]; 12 h): 0.14
- Absorbance, formation of formazan dyes (Means) (Malate dehydrogenase [9]; 0 h): 2.40
- Absorbance, formation of formazan dyes (Means) (Malate dehydrogenase [9]; 1 h): 3.33
- Absorbance, formation of formazan dyes (Means) (Malate dehydrogenase [9]; 2 h): 3.42
- Absorbance, formation of formazan dyes (Means) (Malate dehydrogenase [9]; 3 h): 3.38
- Absorbance, formation of formazan dyes (Means) (Malate dehydrogenase [9]; 4 h): 3.38
- Absorbance, formation of formazan dyes (Means) (Malate dehydrogenase [9]; 6 h): 3.27
- Absorbance, formation of formazan dyes (Means) (Malate dehydrogenase [9]; 8 h): 3.26
- Absorbance, formation of formazan dyes (Means) (Malate dehydrogenase [9]; 10 h): 3.18
- Absorbance, formation of formazan dyes (Means) (Malate dehydrogenase [9]; 12 h): 3.09
- Formation of formazan dyes, absorbance, Means 0 h ([12]; Malate dehydrogenase and diaphorase, absence of malate, 0 h): 0.17
- Formation of formazan dyes, absorbance, Means 1 h ([12]; Malate dehydrogenase and diaphorase, absence of malate, 1 h): 0.24
- Formation of formazan dyes, absorbance, Means 2 h ([12]; Malate dehydrogenase and diaphorase, absence of malate, 2 h): 0.22
- Formation of formazan dyes, absorbance, Means 3 h ([12]; Malate dehydrogenase and diaphorase, absence of malate, 3 h): 0.25
- Formation of formazan dyes, absorbance, Means 4 h ([12]; Malate dehydrogenase and diaphorase, absence of malate, 4 h): 0.21
- Formation of formazan dyes, absorbance, Means 6 h ([12]; Malate dehydrogenase and diaphorase, absence of malate, 6 h): 0.22
- Formation of formazan dyes, absorbance, Means 8 h ([12]; Malate dehydrogenase and diaphorase, absence of malate, 8 h): 0.23
- Formation of formazan dyes, absorbance, Means 10 h ([12]; Malate dehydrogenase and diaphorase, absence of malate, 10 h): 0.26
- Formation of formazan dyes, absorbance, Means 12 h ([12]; Malate dehydrogenase and diaphorase, absence of malate, 12 h): 0.25
- reduction of tetrazolium dye in the absence of substrate malate ([12]; malate dehydrogenase and diaphorase (TABLE 9)): remained largely in oxidized forms
SMILES: Cc1nc(-[n+]2nc(-c3cccc(OCC(=O)O)c3)nn2-c2ccc(S(=O)(=O)[O-])cc2)sc1C [MTS, 3-(4,5-dimethylthiazol-2-yl)-5-(3-carboxymethoxyphenyl)-2-(4-sulfophenyl)-2H-tetrazolium, inner salt]
- Absorbance, formation of formazan dyes (Means) ([2]; 0 h): 2.33
- Absorbance, formation of formazan dyes (Means) ([2]; 1 h): 2.41
- Absorbance, formation of formazan dyes (Means) ([2]; 2 h): 2.44
- Absorbance, formation of formazan dyes (Means) ([2]; 3 h): 2.47
- Absorbance, formation of formazan dyes (Means) ([2]; 4 h): 2.27
- Absorbance, formation of formazan dyes (Means) ([2]; 6 h): 2.38
- Absorbance, formation of formazan dyes (Means) ([2]; 8 h): 2.41
- Absorbance, formation of formazan dyes (Means) ([2]; 10 h): 2.45
- Absorbance, formation of formazan dyes (Means) ([2]; 12 h): 2.40
- Absorbance, formation of formazan dyes (Means) ([3]; 0 h): 0.36
- Absorbance, formation of formazan dyes (Means) ([3]; 1 h): 0.42
- Absorbance, formation of formazan dyes (Means) ([3]; 2 h): 0.41
- Absorbance, formation of formazan dyes (Means) ([3]; 3 h): 0.43
- Absorbance, formation of formazan dyes (Means) ([3]; 4 h): 0.43
- Absorbance, formation of formazan dyes (Means) ([3]; 6 h): 0.48
- Absorbance, formation of formazan dyes (Means) ([3]; 8 h): 0.59
- Absorbance, formation of formazan dyes (Means) ([3]; 10 h): 0.63
- Absorbance, formation of formazan dyes (Means) ([3]; 12 h): 0.66
- conversion into colored formazan dyes in assay buffer containing 1-methoxy PMS ([3]; control buffer, absence of malate (TABLE 21) or presence of malate (TABLE 22)): slowly catalyze the conversion of tetrazolium salts into colored formazan dyes
- Absorbance, formation of formazan dyes (Means) (oral lavage [4]; 0 h): 0.78
- Absorbance, formation of formazan dyes (Means) (oral lavage [4]; 1 h): 1.33
- Absorbance, formation of formazan dyes (Means) (oral lavage [4]; 2 h): 1.69
- Absorbance, formation of formazan dyes (Means) (oral lavage [4]; 3 h): 1.90
- Absorbance, formation of formazan dyes (Means) (oral lavage [4]; 4 h): 1.87
- Absorbance, formation of formazan dyes (Means) (oral lavage [4]; 6 h): 2.27
- Absorbance, formation of formazan dyes (Means) (oral lavage [4]; 8 h): 2.60
- Absorbance, formation of formazan dyes (Means) (oral lavage [4]; 10 h): 2.89
- Absorbance, formation of formazan dyes (Means) (oral lavage [4]; 12 h): 3.22
- reduction to formazan dyes by pooled oral lavage (oral lavage [5]; pooled oral lavage of high bleeder group, diaphorase, no added malate (TABLE 11)): changed to formazan dyes in a significant amount
- Absorbance, formation of formazan dyes (Means) ([10]; 0 h): 2.31
- Absorbance, formation of formazan dyes (Means) ([10]; 1 h): 2.55
- Absorbance, formation of formazan dyes (Means) ([10]; 2 h): 2.60
- Absorbance, formation of formazan dyes (Means) ([10]; 3 h): 2.59
- Absorbance, formation of formazan dyes (Means) ([10]; 4 h): 2.63
- Absorbance, formation of formazan dyes (Means) ([10]; 6 h): 2.65
- Absorbance, formation of formazan dyes (Means) ([10]; 8 h): 2.69
- Absorbance, formation of formazan dyes (Means) ([10]; 10 h): 2.67
- Absorbance, formation of formazan dyes (Means) ([10]; 12 h): 2.65
- Means absorbance 0 h ([11]; 0 h): 0.20
- Means absorbance 1 h ([11]; 1 h): 0.20
- Means absorbance 2 h ([11]; 2 h): 0.21
- Means absorbance 3 h ([11]; 3 h): 0.23
- Means absorbance 4 h ([11]; 4 h): 0.25
- Means absorbance 6 h ([11]; 6 h): 0.33
- Means absorbance 8 h ([11]; 8 h): 0.36
- Means absorbance 10 h ([11]; 10 h): 0.47
- Means absorbance 12 h ([11]; 12 h): 0.50

Source: US20180320217A1, “METHODS FOR SAMPLING AND MEASURING ORAL LAVAGE PROTEINS” (The Procter & Gamble Company, priority 2017, published 2018)
